Experimental findings from patent US20250091983A1, “CYCLOPENTANE AND CYCLOHEXANE VARIANTS OF 6-PHENYLHEXANAMIDE MITOFUSIN ACTIVATORS AND METHODS FOR USE THEREOF” (MITOCHONDRIA EMOTION, INC., priority 2021, published 2025) are described below.

Data set [1] concerns mitofusin. In words: Dose-response of mitofusin agonist fusogenicity (mitochondrial aspect ratio). It is filed as cell-based, mouse. To be noted: Mfn1-KO or Mfn2-KO MEFs; mitochondrial aspect ratio indexed to maximal response of Compound 22; overnight. On the procedure: Wild-type MEFs were prepared from E10.5 c57/bl6 mouse embryos. SV-40 T antigen-immortalized MFN1 null (CRL-2992), MFN2 null (CRL-2993) and MFN1/MFN2 double null MEFs (CRL-2994) were purchased from ATCC.
Mitochondria were then stained with MitoTracker Orange (200 nM; M7510; Invitrogen, Carlsbad, CA, USA). Nuclei were stained with Hoescht ([…]; Invitrogen, Thermo Fisher Scientific Cat: #1-3570). […] Response curves were interpolated using the sigmoidal model using Prism 8 software.

Data set [2] is described as follows: Plasma protein binding by equilibrium dialysis, human. The settings on record: read-out: Plasma Protein Binding (Bound %) Human (converted). The format is in vitro ADME. On the procedure: (§1) In vitro pharmacokinetic analyses were performed in duplicate using standard methods by WuXi AppTec Co. Ltd. (Shanghai, China). Plasma protein binding was measured by equilibrium dialysis; % bound=(1−[free compound in dialysate]/[total compound in retentate])×100. […] Liver microsome stability of 1 uM compounds in liver microsomes (0.5 mg/ml) after 0, 5, 10, 20, 30, 60 min. incubation was assessed by LC/MS/MS of reaction extracts.

A short description of data set [3]: Plasma protein binding by equilibrium dialysis, mouse. It is filed as in vitro ADME. To be noted: read-out: Plasma Protein Binding (Bound %) Mouse (converted). The protocol: as §1
Data set [4] is described as follows: Liver microsome stability, mouse. To be noted: 1 uM compound, mouse liver microsomes 0.5 mg/ml; read-out: Liver Microsomes (t1/2, minutes) Mouse. The format is in vitro ADME. The protocol:
as §1
(Liver microsomes are vesicles of endoplasmic reticulum, rich in cytochrome P450 enzymes.)

Data set [5] in a line: Liver microsome stability, human. It is filed as in vitro ADME. The settings on record: 1 uM compound, human liver microsomes 0.5 mg/ml; read-out: Liver Microsomes (t1/2, minutes) Human. On the procedure: as §1

Turning to `O=C(N[C@H]1CC[C@H](O)CC1)C1CCC(CCCc2ccccc2)C1` (stereo partly drawn) [15 (Exp.), N-(4-hydroxycyclohexyl)-3-(3-phenylpropyl)cyclopentane-1-carboxamide], the EC50 in data set [1] was 15.3 nM. Moreover, the fraction unbound in data set [2] was 0.007; in data set [3], 0.012.

Consider `O=C(CCCCCc1ccccc1)NC1CCOCC1` [23 (Comp.)], for which, in data set [1], the EC50 is 6.3 nM. In addition, the half-life at 1 uM in data set [4] is 112 min; in data set [5], 23.7 min.

What is called EC50 is the midpoint of the concentration-response curve.
